Columns and labels:
[1] = target: T1, SH (cytoplasmic, soluble hydrogenase) (Cupriavidus necator, UniProt P22317); test: H2-dependent NAD+ reduction at […] nm, soluble extract; type: biochemical; settings: 1 mM NAD+, H2-saturated 50 mM Tris/HCl pH 8.0, anaerobic, 30 °C
T1 construct: gene hoxF; native enzyme in soluble protein fraction of cell extract; hetero-hexamer HoxHYFUI2; with NAD-reducing hydrogenase HoxS subunit beta; NAD-reducing hydrogenase HoxS subunit gamma; NAD-reducing hydrogenase HoxS subunit delta; NAD-reducing hydrogenase subunit HoxI

[2] = target: T2, FOF1-ATPase (FOF1-ATP synthase) (Cupriavidus necator, UniProt Q0K5M2); test: phosphate release from ATP by membrane vesicles; type: biochemical; settings: 5 mM ATP, 1 mM MgSO4, 50 mM Tris-HCl pH 7.0, 30 °C; 10 min preincubation; FN-grown cells; overall ATPase activity of vesicles
T2 construct: gene atpE; native complex in membrane vesicles (osmotic lysis), not purified; FOF1 share defined by DCCD sensitivity; with ATP synthase subunit a; ATP synthase subunit b; ATP synthase subunit alpha; ATP synthase subunit beta; ATP synthase gamma chain; ATP synthase subunit delta; ATP synthase epsilon chain

T1 sequence (P22317 whole entry): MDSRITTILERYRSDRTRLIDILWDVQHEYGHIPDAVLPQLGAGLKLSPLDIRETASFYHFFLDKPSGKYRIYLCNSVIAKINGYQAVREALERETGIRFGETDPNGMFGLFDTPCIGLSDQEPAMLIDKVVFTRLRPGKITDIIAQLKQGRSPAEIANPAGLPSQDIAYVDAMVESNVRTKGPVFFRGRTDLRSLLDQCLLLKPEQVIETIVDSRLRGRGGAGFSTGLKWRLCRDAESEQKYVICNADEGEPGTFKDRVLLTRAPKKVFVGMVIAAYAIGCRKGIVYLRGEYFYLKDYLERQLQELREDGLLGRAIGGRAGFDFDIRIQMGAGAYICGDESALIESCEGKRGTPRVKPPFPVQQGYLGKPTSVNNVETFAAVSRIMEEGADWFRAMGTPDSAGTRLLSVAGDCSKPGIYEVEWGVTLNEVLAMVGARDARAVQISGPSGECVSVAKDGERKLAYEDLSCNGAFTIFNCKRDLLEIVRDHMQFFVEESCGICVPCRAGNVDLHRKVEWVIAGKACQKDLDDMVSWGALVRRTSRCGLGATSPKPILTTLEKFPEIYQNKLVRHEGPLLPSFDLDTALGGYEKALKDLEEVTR
T1 sequence (P22318 2-234 partner): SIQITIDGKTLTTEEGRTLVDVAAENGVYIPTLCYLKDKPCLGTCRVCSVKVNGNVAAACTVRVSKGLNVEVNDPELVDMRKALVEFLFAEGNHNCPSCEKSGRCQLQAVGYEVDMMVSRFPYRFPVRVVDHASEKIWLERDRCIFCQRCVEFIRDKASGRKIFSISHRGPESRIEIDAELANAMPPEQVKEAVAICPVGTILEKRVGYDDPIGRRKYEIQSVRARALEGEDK
T1 sequence (P22319 whole entry partner): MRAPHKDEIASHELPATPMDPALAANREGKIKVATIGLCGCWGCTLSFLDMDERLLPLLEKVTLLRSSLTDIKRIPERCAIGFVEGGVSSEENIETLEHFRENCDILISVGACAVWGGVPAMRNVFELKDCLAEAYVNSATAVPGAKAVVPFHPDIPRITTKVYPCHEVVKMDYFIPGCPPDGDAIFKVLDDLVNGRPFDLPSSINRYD
T1 sequence (P22320 2-464 partner): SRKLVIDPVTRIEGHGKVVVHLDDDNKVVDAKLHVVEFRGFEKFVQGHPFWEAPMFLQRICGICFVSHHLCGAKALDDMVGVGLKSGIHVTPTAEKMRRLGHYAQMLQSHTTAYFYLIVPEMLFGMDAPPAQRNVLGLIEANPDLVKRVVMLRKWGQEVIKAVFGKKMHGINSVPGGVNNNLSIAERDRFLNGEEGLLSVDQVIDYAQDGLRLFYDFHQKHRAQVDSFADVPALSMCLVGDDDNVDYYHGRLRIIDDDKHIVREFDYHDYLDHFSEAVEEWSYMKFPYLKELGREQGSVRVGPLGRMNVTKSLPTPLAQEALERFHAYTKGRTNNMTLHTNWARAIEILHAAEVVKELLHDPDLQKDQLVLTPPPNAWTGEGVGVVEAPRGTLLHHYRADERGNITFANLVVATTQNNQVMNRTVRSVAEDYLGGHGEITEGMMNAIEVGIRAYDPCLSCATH

SMILES	H2-dependent NAD+ reduction at 365 nm, soluble extract [1]	fold inhibition at 0.2 mM [2]
NC(=O)c1ccc[n+]([C@@H]2O[C@H](COP(=O)(O)OP(=O)(O)OC[C@H]3O[C@@H](n4cnc5c(N)ncnc54)[C@H](O)[C@@H]3O)[C@@H](O)[C@H]2O)c1 [NAD^+]	hydrogen-oxidizing activity of SH was measured in anaerobic cuvettes with NAD^+	–
C(=NC1CCCCC1)=NC1CCCCC1 [DCCD, N,N′-dicyclohexylcarbodiimide]	–	~ 2.3 fold
